The source of these data is patent publication US20230398163A1, “FRUIT EXTRACTS FOR USE IN THE TREATMENT OF NEURODEGENERATIVE DISEASES” (NEUROSCIENCE PHARMA SPA, priority 2020, published 2023).

The subject of the data set is PC12 cells. Kind of data set: MTT cell viability assay, extract alone. The class given is cell-based. The conditions noted are these: addition of FCCP. As for the experimental part:
Cellular health was quantified using a 3-(4,5-dimethylthizol-2-yl)-2,5-diphenyltetrazolium bromide (MTT) assay, which indicates cell viability. Cultured PC12 cells were incubated in MTT (1 mg/ml) in 1X DPBS (Dulbecco's phosphate-buffered saline) for 30 minutes, in the presence (or absence) of maqui berry extract provided a concentrations ranging from 0.000081 mg/l to 81 mg/l. Precipitated MTT was dissolved using isopropanol for 15 minutes prior to being added to the culture medium. The cell absorbance was measured in a microplate reader (Novostar, BGM, Germany) at two wavelengths: 560 nm and 620 nm. The difference in cellular absorbance was quantified between the two wavelengths using NovoStar software across experimental conditions.

The structures appear in SMILES notation.

`N#CC(C#N)=NNc1ccc(OC(F)(F)F)cc1` [FCCP, Carbonyl cyanide 4-(trifluoromethoxy)phenylhydrazone]: the “cell viability percent relative to control (MTT)” value was “significant decrease in cell viability percent relative to control levels”.
